Assays:
HeLa = assay: Antiproliferative activity against human HeLa cells assessed as inhibition of cell growth after 48 hrs by MTT assay; assay type: functional, cell-based
MCF7 [1] = assay: Antiproliferative activity against ER positive human MCF7 cells assessed as inhibition of cell growth after 48 hrs by MTT assay; assay type: functional, cell-based; conditions: MCF7, 48 h
MDA-MB-231 = assay: Antiproliferative activity against ER negative human MDA-MB-231 cells assessed as inhibition of cell growth after 48 hrs by MTT assay; assay type: functional, cell-based; conditions: MDA-MB-231, 48 h
HT-29 = assay: Antiproliferative activity against human HT-29 cells assessed as inhibition of cell growth after 48 hrs by MTT assay; assay type: functional, cell-based; conditions: HT-29, 48 h
MRC5 = assay: Antiproliferative activity against human MRC5 cells assessed as inhibition of cell growth after 48 hrs by MTT assay; assay type: functional, cell-based; conditions: MRC5, 48 h
[2] = Antiproliferative activity against human PC3 cells assessed as inhibition of cell growth after 48 hrs by MTT assay; assay type: functional, cell-based; conditions: PC-3, 48 h
A549 = assay: Antiproliferative activity against human A549 cells assessed as inhibition of cell growth after 48 hrs by MTT assay; assay type: functional, cell-based; conditions: A549, 48 h
MCF7 [3] = assay: Cell cycle arrest in human MCF7 cells assessed as cells accumulation at G0/G1 phase at IC50 concentration after 48 hrs by flow cytometry (reference value: 47.55%); assay type: functional
MCF7 [4] = assay: Induction of apoptosis in human MCF7 cells assessed as apoptotic morphological changes at IC50 concentration after 48 hrs by light microscopy; assay type: functional
MCF7 [5] = assay: Cell cycle arrest in human MCF7 cells assessed as cells accumulation at S phase at IC50 concentration after 48 hrs by flow cytometry (reference value: 29.30%); assay type: functional
MCF7 [6] = assay: Cell cycle arrest in human MCF7 cells assessed as cells accumulation at G2/M phase at IC50 concentration after 48 hrs by flow cytometry (Rvb =21.32 %); assay type: functional
MCF7 [7] = assay: Cell cycle arrest in human MCF7 cells assessed as cells accumulation at subG1 phase at IC50 concentration after 48 hrs by flow cytometry (Rvb =1.83 %); assay type: functional

SMILES	IC50 (HeLa)	IC50 (MCF7 [1])	IC50 (MDA-MB-231)	IC50 (HT-29)	IC50 (MRC5)	IC50 [2]	IC50 (A549)	Activity (MCF7 [3])	Activity (MCF7 [4])	Activity (MCF7 [5])	Activity (MCF7 [6])	Activity (MCF7 [7])
C[C@]12C/C(=N\O)C(=O)c3noc(c31)C[C@@H]1[C@@H]2CC[C@@]2(C)[C@H]1CC[C@@]2(O)Cc1ccccn1	> 100 µM	25.3 µM	50.4 µM	> 100 µM	> 100 µM	6.6 µM	> 100 µM					
C[C@]12CCC(=O)C=C1CC[C@@H]1[C@@H]2CC[C@]2(C)/C(=C/c3ccccn3)CC[C@@H]12	> 100 µM	> 100 µM	> 100 µM	> 100 µM	> 100 µM		> 100 µM					
C[C@]12CCNC(=O)C=C1CC[C@@H]1[C@@H]2CC[C@]2(C)/C(=C/c3ccccn3)CC[C@@H]12	> 100 µM	32.2 µM	12.7 µM	> 100 µM	> 100 µM	60.1 µM	19.8 µM					
COc1cccc2c1C(=O)c1c(O)c3c(c(O)c1C2=O)C[C@@](O)(C(=O)CO)C[C@@H]3O[C@H]1C[C@H](N)[C@H](O)[C@H](C)O1 [DOXORUBICIN]		0.12 µM	0.75 µM	7.86 µM			0.32 µM					
C[C@]12CCC(=O)C=C1CC[C@@H]1[C@@H]2CC[C@@]2(C)[C@H]1CC[C@@]2(O)Cc1ccccn1	57.8 µM	> 100 µM	> 100 µM	> 100 µM	> 100 µM	> 100 µM	57.5 µM					
C[C@]12CCC(=O)C(O)=C1CC[C@@H]1[C@@H]2CC[C@]2(C)C(=O)CC[C@@H]12 [FORMESTANE]		55.5 µM	> 100 µM	> 100 µM	> 100 µM	48.4 µM	> 100 µM	54.8%	11.5%	19.48%	24.54%	1.18%
C[C@]12C/C(=N/O)C(=O)C=C1CC[C@@H]1[C@@H]2CC[C@@]2(C)[C@H]1CC[C@@]2(O)Cc1ccccn1	> 100 µM	51.3 µM	> 100 µM	> 100 µM	> 100 µM	> 100 µM	> 100 µM					
C[C@]1(CC#N)C(C#N)=CC[C@@H]2[C@@H]1CC[C@@]1(C)[C@H]2CC[C@@]1(O)Cc1ccccn1	> 100 µM	18.2 µM	7.9 µM	71.8 µM	> 100 µM	31.5 µM	> 100 µM	46.06%		31.34%	21.12%	1.48%
C[C@]12CC[C@H](O)CC1=CC[C@@H]1[C@@H]2CC[C@]2(C)/C(=C/c3ccccn3)CC[C@@H]12	> 100 µM	> 100 µM	> 100 µM	> 100 µM	> 100 µM	> 100 µM	> 100 µM					
C[C@]12C/C(=C/O)C(=O)C=C1CC[C@@H]1[C@@H]2CC[C@]2(C)/C(=C/c3ccccn3)CC[C@@H]12	> 100 µM	> 100 µM	> 100 µM	> 100 µM	> 100 µM	> 100 µM	> 100 µM					
C[C@]12CC[C@H](O)CC1=CC[C@@H]1[C@@H]2CC[C@@]2(C)[C@H]1CC[C@@]2(O)Cc1ccccn1	75.2 µM	96.1 µM	> 100 µM	48.2 µM	> 100 µM	6.3 µM	> 100 µM					
C[C@]12C/C(=C/O)C(=O)C=C1CC[C@@H]1[C@@H]2CC[C@@]2(C)[C@H]1CC[C@@]2(O)Cc1ccccn1	> 100 µM	34.4 µM	19 µM	> 100 µM	> 100 µM	> 100 µM	> 100 µM					
C[C@]12C/C(=N/O)C(=O)/C(=N\O)C1=CC[C@@H]1[C@@H]2CC[C@@]2(C)[C@H]1CC[C@@]2(O)Cc1ccccn1	81.8 µM	40.1 µM	1.7 µM	56 µM	> 100 µM	8.7 µM	10.3 µM	47.66%	12.2%	29.03%	21.23%	2.08%

Source: ChEMBL document CHEMBL3400025, “Synthesis, structural analysis and antitumor activity of novel 17α-picolyl and 17(E)-picolinylidene A-modified androstane derivatives” (Bioorg Med Chem, 2015)
